From patent US20020136733A1, “Malaria peptides” (priority 1994, published 2002)
Like-named read-outs stand apart in the source and are kept apart here. Marks after values point to notes of the source that are not given here. Residues, ends and D or L forms follow the SMILES beside them.

How the values were obtained:
[1] = system: HLA matched or autologous B cell line targets pre-pulsed with the peptide; test: CTL chromium release assay with restimulated lymphocytes from malaria-exposed Gambians; format: cell-based, human; conditions: for identified as an epitope for a secondary cytotoxic T lymphocyte response: asterisk beside the label in the table, HLA class I molecule
Method: Peptides shown to bind to a particular HLA class I allele were tested for CTL recognition in assays using lymphocytes from malaria-exposed Gambians, as described previously^1. A minority of peptides, synthesized to correspond to a peptides binding motif were not tested in the relevant assembly assay but tested only for CTL recognition. Cells from 82 adult Gambians and 53 Gambian children, all exposed to malaria, were used in the course of these studies. The children and adults were HLA typed using cellular or molecular techniques as described previously^1. Peptides were incubated with cells either singly, or in pools as described^1 at concentrations of 10-100 μM. Peptides could either be left with the cells for the duration of restimulation (as reported^1) or washed off after an hour. Cells were cultured for 1-3 weeks before a standard CTL chromium release assay^1 was performed using HLA matched or autologous B cell line targets pre-pulsed with the peptide to be tested. Peptides were tested either singly or in pools for CTL recognition.

HLA-B17 = test: HLA assembly assay, binding to HLA-B17 (T2 cell line transfected with HLA-B58); set-up: species or system human
Excerpt: (§1) We have recently described a novel approach to identifying CTL epitopes and potential CTL epitopes in P. falciparum^1. This consisted, in brief, of 1) determining a motif for peptides bound to a particular KLA class I molecules, 2) synthesizing peptides from P. falciparum antigens congruent with this motif, 3) testing whether these peptides bind to that HLA class I allele using a binding assay known as a HLA assembly assay, and 4) testing whether lymphocytes from individuals exposed to malaria could recognise these peptides as epitopes after suitable in vitro restimulation and culture. In that work we identified peptide epitopes and potential peptide epitopes for two HLA class I molecules, HLA-B53 and HLA-B35. Here we extend that work to four further HLA class I molecules: HLA-A2, HLA-B8, HLA-B7 and HLA-B17. 52 peptides are identified that are shown either to be epitopes or potential epitopes for these HLA class I molecules.
The peptide binding motifs of HLA-A2, HLA-B7 and HLA-B8 have been described. For HLA-A2 strong preferences were found at positions 2 and 9 of bound peptides: for leucine, isoleucine and methionine at position 2, and for valine, leucine and isoleucine at position 9^3, 4 For HLA-B7 the preferred residues were proline at position 2 and a hydrophobic residue at position 9. Leucine, isoleucine, valine, alanine, phenylalanine and tryptophan were the hydrophobic residues preferred^5. For HLA-B8 preferred residues were found at positions 3, 5 and 9^6. At positions 3 and 5 lysine or arginine are preferred and at position 9, leucine or isoleucine or valine. The motif for peptides bound to HLA-B17 has not been reported so we determined this exactly as described for HLA-B35^1, using instead of the cell line CIR-B35, the cell line CIR-B58.
(§2) As described previously for identification of HLA-B35 and HLA-B53 epitopes^1, peptides were synthesised to correspond to these four motifs from the primary amino acid sequences of four P. falciparum pre-erythrocytic antigens: CSP, TRAP, LSA-1 and SHEBA. Over one hundred peptides were synthesized. […]

HLA-B7 = biological target: T1, HLA-B7 (Homo sapiens, UniProt P01889); format: binding
T1 construct: expressed in transfected cells; host or cells: T2 cell line
T1 sequence (P61769 21-119): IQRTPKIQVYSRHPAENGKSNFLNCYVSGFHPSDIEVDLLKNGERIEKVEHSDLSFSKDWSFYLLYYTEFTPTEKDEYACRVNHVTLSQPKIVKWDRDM
T1 sequence (P01889 25-362): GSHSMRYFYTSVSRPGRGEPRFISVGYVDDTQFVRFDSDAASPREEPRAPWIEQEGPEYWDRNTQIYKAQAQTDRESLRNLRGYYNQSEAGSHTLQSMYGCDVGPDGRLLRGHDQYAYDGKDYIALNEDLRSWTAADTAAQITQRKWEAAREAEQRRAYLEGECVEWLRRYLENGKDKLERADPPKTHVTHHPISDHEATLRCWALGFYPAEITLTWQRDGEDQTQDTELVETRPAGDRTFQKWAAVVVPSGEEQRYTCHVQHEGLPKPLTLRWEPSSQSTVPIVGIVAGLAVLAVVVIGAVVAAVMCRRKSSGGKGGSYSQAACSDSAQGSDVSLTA
Excerpt: as §1
(§3) As described previously for identification of HLA-B35 and HLA-B53 epitopes^1, peptides were synthesised to correspond to these four motifs from the primary amino acid sequences of four P. falciparum pre-erythrocytic antigens: CSP, TRAP, LSA-1 and SHEBA. Over one hundred peptides were synthesized. Binding assays^7 were performed on selected peptides to determine whether they bound to HLA-A2, -B7, -B8, or -B58 using the untransfected T2 cell line (for HLA-A2) or the T2 cell line transfected with HLA-B7 (used to assess binding to HLA-B7s), or with HLA-B8 (used to assess binding to HLA-B8), or with HLA-B58 (used to assess binding to HLA-B58).

HLA-A2 = biological target: T2, HLA-A2 (Homo sapiens, UniProt P04439, D140Y/D185E/D98H/E176V/E277Q/G131W/G231S/I119V/I121R/I166T/I218V/L300P/L318F/N151K/N90K/P208A/P217A/Q86G/Q94H/R138H/R169H/T345S); test: HLA assembly assay, binding to HLA-A2 (untransfected T2 cell line)
T2 construct: using the untransfected T2 cell line (for HLA-A2); endogenous in cells; host or cells: untransfected T2 cell line
Excerpt: as §1, §3

HLA-B8 = test: HLA assembly assay, binding to HLA-B8 (T2 cell line transfected with HLA-B8); set-up: species or system human
Excerpt: as §1, §2

[2] = T2 cell line transfected with HLA-B7

With CSCC[C@H](N)C(=O)N1CCC[C@H]1C(=O)N[C@@H](CC(N)=O)C(=O)N[C@@H](Cc1ccc(O)cc1)C(=O)N1CCC[C@H]1C(=O)N[C@@H](CC(N)=O)C(=O)N[C@@H](CCCNC(=N)N)C(=O)N[C@@H](CC(N)=O)C(=O)N[C@H](C(=O)O)C(C)C [cp6.1, MPNYPNRNV] (H-MPNYPNRNV-OH; N-terminus and C-terminus assumed) the “identified as an epitope for a secondary cytotoxic T lymphocyte response” value (from here on “identified as an epitope”) [1] was “cp6.1 *”.
CSCC[C@H](N)C(=O)N1CCC[C@H]1C(=O)N[C@@H](CC(N)=O)C(=O)N[C@@H](CC(N)=O)C(=O)N1CCC[C@H]1C(=O)N[C@@H](CC(N)=O)C(=O)N[C@@H](CCCNC(=N)N)C(=O)N[C@@H](CC(N)=O)C(=O)N[C@H](C(=O)O)C(C)C [cp6.2, MPNNPNRNV] (H-MPNNPNRNV-OH; N-terminus and C-terminus assumed) was tested, and the “identified as an epitope” value [1] was “cp6.2 *”.
In the case of CC[C@H](C)[C@H](NC(=O)[C@@H](NC(=O)[C@H](CCCCN)NC(=O)[C@H](CC(C)C)NC(=O)[C@@H](N)Cc1ccc(O)cc1)[C@@H](C)O)C(=O)N[C@@H](CCC(N)=O)C(=O)N[C@@H](CC(N)=O)C(=O)N[C@@H](CO)C(=O)N[C@@H](CC(C)C)C(=O)O [cp36, YLKTIQNSL] (H-YLKTIQNSL-OH; N-terminus and C-terminus assumed), the “identified as an epitope” value [1] is reported as “cp36 *”.
For CC[C@H](C)[C@H](NC(=O)[C@H](CCCCN)NC(=O)[C@H](CCC(N)=O)NC(=O)[C@H](CC(C)C)NC(=O)[C@@H](N)Cc1ccc(O)cc1)C(=O)N[C@@H](CCC(N)=O)C(=O)N[C@@H](CC(N)=O)C(=O)N[C@@H](CO)C(=O)N[C@@H](CC(C)C)C(=O)O [cp37, YLQKIQNSL] (H-YLQKIQNSL-OH; N-terminus and C-terminus assumed), the “identified as an epitope” value [1] was “cp37 *”.
In the case of CC[C@H](C)[C@H](NC(=O)[C@H](CCCCN)NC(=O)[C@H](CCC(N)=O)NC(=O)[C@H](CC(C)C)NC(=O)[C@@H](N)Cc1ccc(O)cc1)C(=O)N[C@@H](CCCCN)C(=O)N[C@@H](CC(N)=O)C(=O)N[C@@H](CO)C(=O)N[C@@H](CC(C)C)C(=O)O [cp38, YLQKIKNSL] (H-YLQKIKNSL-OH; N-terminus and C-terminus assumed), the “identified as an epitope” value [1] is reported as “cp38 *”.
In the case of CC(C)C[C@H](NC(=O)[C@H](Cc1ccc(O)cc1)NC(=O)[C@H](CCCCN)NC(=O)[C@@H](NC(=O)[C@H](CC(N)=O)NC(=O)CNC(=O)[C@H](CC(C)C)NC(=O)[C@@H](N)Cc1c[nH]cn1)C(C)C)C(=O)N[C@H](C(=O)O)C(C)C [tr26, HLGNVKYLV] (H-HLGNVKYLV-OH; N-terminus and C-terminus assumed), the “identified as an epitope” value [1] is reported as “tr26 *”.
In the case of CC[C@H](C)[C@H](NC(=O)CN)C(=O)N[C@@H](C)C(=O)NCC(=O)NCC(=O)N[C@@H](CC(C)C)C(=O)N[C@@H](C)C(=O)N[C@@H](CC(C)C)C(=O)N[C@@H](CC(C)C)C(=O)O [tr39, GIAGGLALL] (H-GIAGGLALL-OH; N-terminus and C-terminus assumed), the “identified as an epitope” value [1] is reported as “tr39 *”.
For CC(C)C[C@H](NC(=O)[C@H](C)NC(=O)[C@H](CCCCN)NC(=O)[C@H](CCC(=O)O)NC(=O)[C@H](CCCCN)NC(=O)[C@H](CC(N)=O)NC(=O)[C@H](CCCCN)NC(=O)[C@H](CO)NC(=O)[C@H](C)N)C(=O)O [tr42, ASKNKEKAL] (H-ASKNKEKAL-OH; N-terminus and C-terminus assumed), the “identified as an epitope” value [1] was “tr42 *”.
CC[C@H](C)[C@H](NC(=O)[C@@H](NC(=O)[C@H](CC(C)C)NC(=O)[C@H](C)NC(=O)[C@H](CCCCN)NC(=O)[C@H](CCC(=O)O)NC(=O)[C@H](CCCCN)NC(=O)[C@H](CC(N)=O)NC(=O)[C@@H](N)CCCCN)[C@@H](C)CC)C(=O)O [tr43, KNKEKALII] (H-KNKEKALII-OH; N-terminus and C-terminus assumed) was tested, and the “identified as an epitope” value [1] was “tr43 *”.
In the case of “CSSVFNVV [cp56, circumsporozoite protein peptide, position 388, HLA-B17]”, the “binding to HLA-B17 in the HLA assembly assay” value (shortened to “binding to HLA-B17”) (HLA-B17) is reported as “bind”.
In the case of EPAPFDETL [tr15], the “binding to HLA-B7 in the HLA assembly assay” value (“binding to HLA-B7” below) (HLA-B7; [2]) is reported as “bind”.
In the case of “GIYKELEDL [ls19, LSA-1 peptide, position 1801, HLA-A2]”, the “binding to HLA-A2 in the HLA assembly assay” value (from here on “binding to HLA-A2”) (HLA-A2) is reported as “bind”.
For GPFMKAVCV [tr21], the “binding to HLA-B7” value (HLA-B7; [2]) was “bind”.
With “GSANKPKDEL [cp55, circumsporozoite protein peptide, position 364, HLA-B17]” the “binding to HLA-B17” value (HLA-B17) was “bind”.
With “HIFDGDNEI [ls23, LSA-1 peptide, position 1883, HLA-A2]” the “binding to HLA-A2” value (HLA-A2) was “bind”.
ILYISFYFI [ls10] was tested, and the “binding to HLA-A2” value (HLA-A2) was “bind”.
For IPDSIQDSL [tr13], the “binding to HLA-B7” value (HLA-B7; [2]) was “bind”.
For “IPSLALMLI [sh1, SHEBA peptide, position 7, HLA-B7]”, the “binding to HLA-B7” value (HLA-B7; [2]) was “bind”.
With “KPIVQYDNF [ls6, LSA-1 peptide, position 1786, HLA-B7]” the “binding to HLA-B7” value (HLA-B7; [2]) was “bind”.
In the case of “LLMDCSGSI [tr29, TRAP peptide, position 51, HLA-A2]”, the “binding to HLA-A2” value (HLA-A2) is reported as “bound”.
In the case of “LRKPKHKKL [cp43, circumsporozoite protein peptide, position 134, HLA-B8]”, the “CTL recognition / lysis of peptide-pulsed target cells” value ([1]; Gambian adults with HLA-B8 (Z42, Z130, Z80, Z169), 10% or greater specific lysis regarded as significant) is reported as “HLA-B8-restricted CTL epitope” and the “binding to HLA-B8 in the HLA assembly assay” value (HLA-B8) is reported as “bound”.
In the case of “LSVSSFLFV [cp48, circumsporozoite protein peptide, position 8, HLA-B17]”, the “binding to HLA-B17” value (HLA-B17) is reported as “bind”.
In the case of MPLETQLAI [sh6], the “binding to HLA-B7” value (HLA-B7) is reported as “bind”.
In the case of NPDPNANPNV [cp21], the “binding to HLA-B7” value (HLA-B7; [2]) is reported as “bind”.
“NPENPPNPDI [tr6, TRAP peptide, position 348, HLA-B7]” was tested, and the “binding to HLA-B7” value (HLA-B7; [2]) was “bind”.
YISFYFILV [ls11] was tested, and the “binding to HLA-A2” value (HLA-A2) was “bind”.
